# Results reported in patent US20230174584A1, “Antibiotic Compounds” (priority 2019, published 2023).
# Where “and” joins values, the source holds several entries; their conditions need not be identical. Equal values may be shown once. Read-outs that look alike come from different tables or passages of the source.
# Key:
# MRSA USA 300 = assay: Resistance development serial passage assay; assay type: cell-based, Staphylococcus aureus; settings: MRSA serially passaged over 30 days in sub-lethal antibiotic concentrations
# Protocol: (§1) FIG. 3 illustrates the results obtained when selected compounds were assessed using a resistance development serial passage assay. A) Daily fold-increase of MIC compared to initial MIC against MRSA USA 300 grown in sub-lethal concentrations of daptomycin, compound 5 or compound 16 over 30 days. B). Daily fold-increase of MIC compared to initial MIC against VRE E155 grown in sub-lethal concentrations of daptomycin, compound 5 or compound 16 over 30 days.
# (§2) From glycerol stocks, bacterial strains were cultured on blood agar plates and incubated overnight at 37° C. A single colony was grown to exponential phase (OD600=0.5) in TSB+0.002% p80 and diluted 1:100 in fresh media. In polypropylene 96-well microtiter plates, antibiotics were added in biological triplicates and serial diluted 2-fold by transfer and mixing from one well to the next to achieve a final volume of 50 μL per well. An equal volume of bacterial suspension was added to the wells and plates were incubated overnight at 37° C. […] This procedure was repeated for 30 days and the MIC was recorded daily. Cultures containing daptomycin were supplemented with 50 mg L^−1 CaCl2 and 10 mg L^−1 MgSO4. The experiment was performed in biological replicates and for each replicate the MIC was determined from the median of a minimum of triplicates.
# PK in naïve mice = assay type: in vivo; settings: mouse, 3 mg kg^−1 subcutaneous; for Cmax: read-out: C0/Cmax
# Protocol: (§3) Mouse studies were performed using pathogen-free CD1 mice (ICR), a well characterized outbred murine strain (supplied by Charles River, Margate UK). All mice were male and weighed 11-15 gram upon arrival. and were allowed to acclimatize for at least 7 days prior to study initiation. Mice were individually housed in sterilized ventilated cages supplied with HEPA filtered sterile air and aspen chip bedding (changed a minimum of once a week). Food and water was available ad libitum. The room temperature was 22° C. 1° C., with a 60% relative humidity and a maximum background noise of 56 dB. Mice were exposed to a 12 h light/dark cycle.
# Test article 5 was administered at 3 mg kg^−1 subcutaneously in naïve mice (n=3) that were not immunosuppressed or infected. Whole blood was collected from the tail vein at 5 min, 15 min, 30 min, 1 h, 2 h, 4 h and 8 h. The last sample was taken as a terminal cardiac puncture.
# [1] = tested on: MRSA USA300 strain NRS384; assay: Efficacy, neutropenic mouse thigh infection; assay type: in vivo, Staphylococcus aureus (in CD1 mice); settings: neutropenic mice, individual thighs, 23 h post treatment
# Protocol: as §3
# Mice were made neutropenic by a subcutaneous injection of 150 mg kg^−1 and 100 mg kg^−1 cyclophosphamide 4 days and 1 day before infection respectively. Mice were infected in both thighs with MRSA USA300 strain NRS384 (1.47×10^6 CFU mL-1, 7.33×10^4 CFU per thigh) intramuscularly under temporary anesthesia. […] Pretreatment group was euthanized one hour after infection and the other treatment groups were euthanized […]. Weighted thighs were homogenized and cultured on MSA agar at 37° C. for 18-24 h followed by colony counting. Each group consisted of n=6 mice with both thighs infected (n=12 thighs per treatment group) and each thigh was treated as a separate sample. Data analysis was done with StatsDirect software v. 3.2.8 using non-parametric statistical models (Kruskal-Wallis using Conover-Inman to make all pairwise comparisons between groups).
# Colony forming units in neutropenic mice infected in each thigh with MRSA followed 1 h later by the first subcutaneous dose of antibiotic at concentrations indicated and subsequently the same dose at indicated intervals, with sacrifice and bacterial load determination in homogenized thighs at 23 h post treatment (24 h post infection). […] Data are mean±SEM (n=12, six mice per group, two thighs per mouse).
# VRE E155 = assay: Resistance development serial passage assay; assay type: cell-based, Enterococcus faecium; settings: VanA-type VRE strain serially passaged over 30 days in sub-lethal antibiotic concentrations
# Protocol: as §1, §2
# [2] = Tolerability in naïve mice; assay type: in vivo; settings: 100 mg/kg (SC), two mice
# Protocol: as §3
# Tolerability of compound 5 was assessed at 100 mg kg^−1 subcutaneous injection (in 10% DMSO in water for injection) in naïve mice (n=2) that were not immunosuppressed or infected.
# E. faecium E155 = settings: Enterococcus faecium E155, strain description; cited from earlier work
smiles,measurement,setting,value
CCCCCCCNC(N)=Nc1ccc(CN[C@@]2(C)C[C@H](O[C@H]3[C@H](Oc4c5cc6cc4Oc4ccc(cc4Cl)[C@@H](O)[C@@H](NC(=O)[C@@H](CC(C)C)NC)C(=O)N[C@@H](CC(N)=O)C(=O)N[C@H]6C(=O)N[C@H]4C(=O)N[C@H](C(=O)N[C@H](C(=O)O)c6cc(O)cc(O)c6-c6cc4ccc6O)[C@H](O)c4ccc(c(Cl)c4)O5)O[C@H](CO)[C@@H](O)[C@@H]3O)O[C@@H](C)[C@H]2O)cc1 [Compound 5],"resistance induction, fold-increase of MIC compared to initial MIC",MRSA USA 300,did not induce resistance
same,AUC0-t,PK in naïve mice; Mean/Median (n=3),3.134 µM·h
same,AUC % Extrapolation to infinity,PK in naïve mice; Mean/Median (n=3),1.9%
same,C0/Cmax,PK in naïve mice; Mean/Median (n=3),1813 ng/mL
same,CL/CL_F,PK in naïve mice; Mean/Median (n=3),9.30 mL/min/kg
same,Clast,PK in naïve mice; Mean/Median (n=3),54.6 ng/mL
same,t1/2,PK in naïve mice; Mean/Median (n=3),1.22 h
same,tlast,PK in naïve mice; Mean/Median (n=3),8.00 h
same,tmax,PK in naïve mice; Mean/Median (n=3),1.00 h
same,Cmax,PK in naïve mice; Mean/Median (n=3),1070 nM
same,AUC0-t,PK in naïve mice; individual samples 1-3,3.238 µM·h and 3.368 µM·h and 2.797 µM·h
same,AUC % Extrapolation to infinity,PK in naïve mice; individual samples 1-3,3.1% and 0.9% and 1.6%
same,AUCinf,PK in naïve mice; individual samples 1-3,5664 ng hr mL^−1 and 5759 ng hr mL^−1 and 4814 ng hr mL^−1 and 3342 nM hr and 3398 nM hr and 2841 nM hr
same,C0/Cmax,PK in naïve mice; individual samples 1-3,1989 ng/mL and 1903 ng/mL and 1546 ng/mL
same,CL/CL_F,PK in naïve mice; individual samples 1-3,9 mL min^−1 kg^−1 (2×) and 10 mL min^−1 kg^−1
same,Clast,PK in naïve mice; individual samples 1-3,85.3 ng/mL and 34.4 ng/mL and 44.2 ng/mL
same,t1/2,PK in naïve mice; individual samples 1-3,1.43 h and 1.05 h and 1.17 h
same,tlast,PK in naïve mice; individual samples 1-3,8.00 h
same,tmax,PK in naïve mice; individual samples 1-3,1.00 h (2×) and 2.00 h
same,Cmax,PK in naïve mice; individual samples 1-3,1170 nM and 1120 nM and 912 nM
same,Thigh burden,[1]; 3 mg kg^−1 q6h subcutaneous,113 CFU g^−1 (2×) and 368 CFU g^−1 and 456 CFU g^−1 and 9139 CFU g^−1 and 666 CFU g^−1 and 350 CFU g^−1 and 587 CFU g^−1 and 75 CFU g^−1 and 42132 CFU g^−1 and 7735 CFU g^−1 and 3885 CFU g^−1
same,Thigh burden,[1]; 10 mg kg^−1 q6h subcutaneous,368 CFU g^−1 and 35 CFU g^−1 and 77 CFU g^−1 and 96 CFU g^−1 and 76 CFU g^−1 and 40 CFU g^−1 and BLD (2×) and 158 CFU g^−1 and 7984 CFU g^−1 and 81 CFU g^−1 and 34 CFU g^−1
same,"resistance induction, fold-increase of MIC compared to initial MIC",VRE E155,low levels of resistance induction
same,adverse effects and gross morphology,[2],No adverse effects and normal gross morphology
same,tolerability,[2],well tolerated
"CN[C@H](CC(C)C)C(=O)N[C@H]1C(=O)N[C@@H](CC(N)=O)C(=O)N[C@H]2C(=O)N[C@H]3C(=O)N[C@H](C(=O)N[C@H](C(=O)O)c4cc(O)cc(O)c4-c4cc3ccc4O)[C@H](O)c3ccc(c(Cl)c3)Oc3cc2cc(c3O[C@@H]2O[C@H](CO)[C@@H](O)[C@H](O)[C@H]2O[C@H]2C[C@](C)(N)[C@H](O)[C@H](C)O2)Oc2ccc(cc2Cl)[C@H]1O [Vancomycin, reference compound]",Thigh burden,[1]; 25 mg kg^−1 q12h subcutaneous,2023 CFU g^−1 and 1148 CFU g^−1 and 142564 CFU g^−1 and 283390 CFU g^−1 and 1204 CFU g^−1 and 310 CFU g^−1 and BLD and 6736 CFU g^−1 and 106 CFU g^−1 and 825 CFU g^−1 and 1030 CFU g^−1
same,MIC vancomycin (strain description),E. faecium E155,1020 µg/mL
